Experimental data from PubChem BioAssay AID1845213 (Molecular Pharmacology Branch, DTP, NCI, 2023).
pIC50: −log10 of the molar value. Where “and” joins values, the source holds several entries; their conditions need not be identical. Equal values may be shown once. Calls of active or inactive are those of the source. The calls were made as follows: active = viability on the fitted dose curve at most 10% of control; inactive = the rest.

Test system: NCI-H841 complex tumor spheroid viability
Experiment: Anticancer human tumor NCI-H841 cell line growth inhibition;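 as to pIC50: spheroids exposed to compounds for 7 days before readout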;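 as to viability, T/C: spheroids exposed to compounds for 7 days before readout; 100% = DMSO vehicle control wells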
Conditions: for viability, T/C: stronger effect = lower value
Outline: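 Complex spheroids of malignant cells with endothelial cells and mesenchymal stem cells; agents alone or combined, from near clinical Cmax (or 10 microM if unknown) down in half-log steps, 0.25% DMSO final.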

[1] = curve of first compound, second compound 1 µM
[2] = curve of first compound, second compound 3.16 µM
[3] = curve of first compound, second compound 10 µM
[4] = curve of first compound, second compound 31.6 µM
[5] = curve of first compound, second compound 100 µM

[2H]c1nc(C)nc([2H])c1-c1cc(NC[C@@H](C)c2cccc3c(C(=O)NC)ccnc23)ncn1 + Cn1nnc2c(C(N)=O)ncn2c1=O
pIC50 [1]: < 5.00
pIC50 [2]: < 5.00
pIC50 [3]: < 5.00
pIC50 [4]: < 5.00
pIC50 [5]: < 5.00
viability, T/C (second compound 1 µM, first compound 0.0316 µM): 98%
viability, T/C (second compound 1 µM, first compound 0.1 µM): 97.6%
viability, T/C (second compound 1 µM, first compound 0.316 µM): 94.8%
viability, T/C (second compound 1 µM, first compound 1 µM): 95%
viability, T/C (second compound 1 µM, first compound 3.16 µM): 93.2%
viability, T/C (second compound 1 µM, first compound 10 µM): 91.4%
viability, T/C (second compound 3.16 µM, first compound 0.0316 µM): 98.8%
viability, T/C (second compound 3.16 µM, first compound 0.1 µM): 99.8%
viability, T/C (second compound 3.16 µM, first compound 0.316 µM): 101%
viability, T/C (second compound 3.16 µM, first compound 1 µM): 101%
viability, T/C (second compound 3.16 µM, first compound 3.16 µM): 95%
viability, T/C (second compound 3.16 µM, first compound 10 µM): 99.3%
viability, T/C (second compound 10 µM, first compound 0.0316 µM): 99.6%
viability, T/C (second compound 10 µM, first compound 0.1 µM): 99.8%
viability, T/C (second compound 10 µM, first compound 0.316 µM): 97.7%
viability, T/C (second compound 10 µM, first compound 1 µM): 101%
viability, T/C (second compound 10 µM, first compound 3.16 µM): 98.9%
viability, T/C (second compound 10 µM, first compound 10 µM): 96.5%
viability, T/C (second compound 31.6 µM, first compound 0.0316 µM): 97%
viability, T/C (second compound 31.6 µM, first compound 0.1 µM): 97.7%
viability, T/C (second compound 31.6 µM, first compound 0.316 µM): 100%
viability, T/C (second compound 31.6 µM, first compound 1 µM): 98%
viability, T/C (second compound 31.6 µM, first compound 3.16 µM): 97.4%
outcome (second compound 31.6 µM, first compound 10 µM): inactive
viability, T/C (second compound 100 µM, first compound 0.0316 µM): 93.4%
viability, T/C (second compound 100 µM, first compound 0.1 µM): 95.7%
viability, T/C (second compound 100 µM, first compound 0.316 µM): 92.5%
viability, T/C (second compound 100 µM, first compound 1 µM): 95.9%
viability, T/C (second compound 100 µM, first compound 3.16 µM): 95.8%
viability, T/C (second compound 100 µM, first compound 10 µM): 91.2%

Cc1cc(C)c(CNC(=O)c2cc(-c3ccc(CN4CCOCC4)cc3)cc3c2cnn3C2CCCC2)c(=O)[nH]1
viability, T/C (compound 0.0316 µM): 101% and 99.7% and 102%
viability, T/C (compound 0.1 µM): 103% and 98.5% and 102%
viability, T/C (compound 0.316 µM): 99.7% and 106% and 98.5%
viability, T/C (compound 1 µM): 99.8% and 93.7% and 97.1%
viability, T/C (compound 3.16 µM): 87.3% and 84.7% and 80.8%
viability, T/C (compound 10 µM): 65.2% and 43.9% and 50.7%
pIC50 (curve of compound): < 5.00 and 5.07

CC1COCCN1c1cc(-c2ccnn2C)c2ccnc(-c3ccn[nH]3)c2n1 (centres undefined)
viability, T/C (compound 0.0316 µM): 77.2% and 68.7% and 83.9%
viability, T/C (compound 0.1 µM): 16.2% and 27.3% and 39.8%
viability, T/C (compound 0.316 µM): 4.34% and 9.62% and 7.72%
viability, T/C (compound 1 µM): 1.61% and 3.17% and 2.67%
viability, T/C (compound 3.16 µM): 1.48% and 2.14% and 1.89%
viability, T/C (compound 10 µM): 1.73% and 2.18% and 2.49%
pIC50 (curve of compound): 7.28 and 7.27 and 7.12

COc1cc(C)[nH]c(=O)c1CN1CCc2c(Cl)cc(C(OC)C3COC3)c(Cl)c2C1=O (centres undefined) + CC[C@@]1(O)C(=O)OCc2c1cc1n(c2=O)Cc2cc3c(CN(C)C)c(O)ccc3nc2-1
pIC50 (curve of first compound, second compound 0.003 µM): 5.42
pIC50 (curve of first compound, second compound 0.00949 µM): 6.64
pIC50 (curve of first compound, second compound 0.03 µM): > 7.50
pIC50 (curve of first compound, second compound 0.0949 µM): > 7.50
pIC50 (curve of first compound, second compound 0.3 µM): > 7.50
viability, T/C (second compound 0.003 µM, first compound 0.0316 µM): 86.1%
viability, T/C (second compound 0.003 µM, first compound 0.1 µM): 72.1%
viability, T/C (second compound 0.003 µM, first compound 0.316 µM): 62.9%
viability, T/C (second compound 0.003 µM, first compound 1 µM): 56.6%
viability, T/C (second compound 0.003 µM, first compound 3.16 µM): 49.7%
viability, T/C (second compound 0.003 µM, first compound 10 µM): 47.5%
viability, T/C (second compound 0.00949 µM, first compound 0.0316 µM): 82.3%
viability, T/C (second compound 0.00949 µM, first compound 0.1 µM): 62.6%
viability, T/C (second compound 0.00949 µM, first compound 0.316 µM): 43.2%
viability, T/C (second compound 0.00949 µM, first compound 1 µM): 38.2%
viability, T/C (second compound 0.00949 µM, first compound 3.16 µM): 32.5%
viability, T/C (second compound 0.00949 µM, first compound 10 µM): 27.9%
viability, T/C (second compound 0.03 µM, first compound 0.0316 µM): 3.53%
viability, T/C (second compound 0.03 µM, first compound 0.1 µM): 1.86%
viability, T/C (second compound 0.03 µM, first compound 0.316 µM): 4.87%
viability, T/C (second compound 0.03 µM, first compound 1 µM): 2.31%
viability, T/C (second compound 0.03 µM, first compound 3.16 µM): 2.71%
viability, T/C (second compound 0.03 µM, first compound 10 µM): 2.37%
viability, T/C (second compound 0.0949 µM, first compound 0.0316 µM): 1.65%
viability, T/C (second compound 0.0949 µM, first compound 0.1 µM): 1.4%
viability, T/C (second compound 0.0949 µM, first compound 0.316 µM): 1.34%
viability, T/C (second compound 0.0949 µM, first compound 1 µM): 1.12%
viability, T/C (second compound 0.0949 µM, first compound 3.16 µM): 0.95%
viability, T/C (second compound 0.0949 µM, first compound 10 µM): 0.94%
viability, T/C (second compound 0.3 µM, first compound 0.0316 µM): 1.75%
viability, T/C (second compound 0.3 µM, first compound 0.1 µM): 1.53%
viability, T/C (second compound 0.3 µM, first compound 0.316 µM): 1.29%
viability, T/C (second compound 0.3 µM, first compound 1 µM): 0.89%
viability, T/C (second compound 0.3 µM, first compound 3.16 µM): 1.03%
viability, T/C (second compound 0.3 µM, first compound 10 µM): 0.98%

CNCc1ccc(-c2cc(-c3nc(-c4ccc(S(=O)(=O)C(C)C)cc4)cnc3N)on2)cc1 + Cn1nnc2c(C(N)=O)ncn2c1=O
pIC50 [1]: 7.20
pIC50 [2]: 7.20
pIC50 [3]: 6.75
pIC50 [4]: 7.06
pIC50 [5]: 7.30
viability, T/C (second compound 1 µM, first compound 0.00949 µM): 96.3%
viability, T/C (second compound 1 µM, first compound 0.03 µM): 94.5%
viability, T/C (second compound 1 µM, first compound 0.0949 µM): 25.5%
viability, T/C (second compound 1 µM, first compound 0.3 µM): 33.9%
viability, T/C (second compound 1 µM, first compound 0.949 µM): 4.57%
viability, T/C (second compound 1 µM, first compound 3 µM): 1.05%
viability, T/C (second compound 3.16 µM, first compound 0.00949 µM): 97.7%
viability, T/C (second compound 3.16 µM, first compound 0.03 µM): 74.5%
viability, T/C (second compound 3.16 µM, first compound 0.0949 µM): 33%
viability, T/C (second compound 3.16 µM, first compound 0.3 µM): 21.8%
viability, T/C (second compound 3.16 µM, first compound 0.949 µM): 3.41%
viability, T/C (second compound 3.16 µM, first compound 3 µM): 0.87%
viability, T/C (second compound 10 µM, first compound 0.00949 µM): 101%
viability, T/C (second compound 10 µM, first compound 0.03 µM): 99.2%
viability, T/C (second compound 10 µM, first compound 0.0949 µM): 89.8%
viability, T/C (second compound 10 µM, first compound 0.3 µM): 16.2%
viability, T/C (second compound 10 µM, first compound 0.949 µM): 2.29%
viability, T/C (second compound 10 µM, first compound 3 µM): 5.12%
viability, T/C (second compound 31.6 µM, first compound 0.00949 µM): 97.5%
viability, T/C (second compound 31.6 µM, first compound 0.03 µM): 96.3%
viability, T/C (second compound 31.6 µM, first compound 0.0949 µM): 45%
viability, T/C (second compound 31.6 µM, first compound 0.3 µM): 17.2%
viability, T/C (second compound 31.6 µM, first compound 0.949 µM): 1.91%
viability, T/C (second compound 31.6 µM, first compound 3 µM): 7.45%
viability, T/C (second compound 100 µM, first compound 0.00949 µM): 92.9%
viability, T/C (second compound 100 µM, first compound 0.03 µM): 48%
viability, T/C (second compound 100 µM, first compound 0.0949 µM): 58.3%
viability, T/C (second compound 100 µM, first compound 0.3 µM): 5.09%
viability, T/C (second compound 100 µM, first compound 0.949 µM): 8.18%
viability, T/C (second compound 100 µM, first compound 3 µM): 0.32%
